Tested on: 766 cancer cell lines
Test: Large-scale cell-line viability measurements (766 cancer cell lines, 72 h, AUC)
Type: cell-based, human
Details: 72 hours
Experimental: Cell lines were treated for 72 hours with concentrations ranging from 66.4 μM-2 nM in 2-fold step dilutions.
To characterize cellular sensitivity to DNMDP further, 766 genomically characterized cancer cell lines were screened for DMNDP sensitivity at concentrations ranging from 66.4 μM to 2 nM in 2-fold dilution steps for 72 hours. From these cell lines, 22 cell lines were categorized as sensitive with a robust Z-score lower than −4, which represented multiple lineages including multiple melanoma cell lines, amongst others (Table 1).
The sensitivity of […] cancer cell lines (CCLs) was measured drawn from 23 different lineages to DNMDP. Each cell line was plated in its preferred media in white opaque 1536-plates at a density of 500 cells/well. After incubating overnight, DNMDP was added by acoustic transfer at 16 concentrations ranging from 66.4 μM-2 nM in 2-fold steps in duplicate (Labcyte Echo 555, Labcyte Inc., Sunnyvale, Calif.). After 72 hours treatment, cellular ATP levels were measured as a surrogate for viability (CELLTITERGLO®, Promega Corporation, Madison, Wis.) according to manufacturer's protocols using a ViewLux Microplate Imager (PerkinElmer, Waltham, Mass.) and normalized to background (media-only) and vehicle (DMSO)-treated control wells.
Concentration response curves were fit using nonlinear fits to 2- or 3-parameter sigmoid functions through all 16 concentrations with the low-concentration asymptote set to the DMSO-normalized value, and an optimal 8-point dose curve spanning the range of compound-sensitivity was identified. The area under the 8-point dose curve (AUC) was computed by numeric integration as a metric for sensitivity for further analysis. Similar sensitivity measurements have been obtained for a collection of 480 other compounds, enabling analyses that identify cell lines responding uniquely to DNMDP (see Broad Institute Cancer Therapeutics Response Portal, a dataset to identify comprehensively relationships between genetic and lineage features of human cancer cell lines and small-molecule sensitivities for complete list of compounds).

[1] = MOLM6 (HAEMATOPOIETIC AND LYMPHOID TISSUE)
[2] = MOLT13 (HAEMATOPOIETIC AND LYMPHOID TISSUE)
[3] = MV411 (HAEMATOPOIETIC AND LYMPHOID TISSUE)
[4] = NALM6 (HAEMATOPOIETIC AND LYMPHOID TISSUE)
[5] = NB4 (HAEMATOPOIETIC AND LYMPHOID TISSUE)
[6] = NCO2 (HAEMATOPOIETIC AND LYMPHOID TISSUE)
[7] = OCIAML2 (HAEMATOPOIETIC AND LYMPHOID TISSUE)
[8] = OCILY19 (HAEMATOPOIETIC AND LYMPHOID TISSUE)
[9] = PECAPJ15 (UPPER AERODIGESTIVE TRACT)
[10] = PF382 (HAEMATOPOIETIC AND LYMPHOID TISSUE)
[11] = RPMI8402 (HAEMATOPOIETIC AND LYMPHOID TISSUE)
[12] = SCC4 (UPPER AERODIGESTIVE TRACT)
[13] = SNU1214 (UPPER AERODIGESTIVE TRACT)
[14] = U118MG (CENTRAL NERVOUS SYSTEM)
[15] = U266B1 (HAEMATOPOIETIC AND LYMPHOID TISSUE)
[16] = U937 (HAEMATOPOIETIC AND LYMPHOID TISSUE)

Structure (SMILES): CCN(CC)c1ccc(C2=NNC(=O)CC2C)cc1[N+](=O)[O-] (centres unmarked) [DNMDP, 6-(4-(diethylamino)-3-nitrophenyl)-5-methyl-4,5-dihydropyridazin-3(2H)-one]
- Robust Z-score (LU99 (LUNG)): −0.8744
- DNMDP AUC (LXF289 (LUNG)): 5.734
- Robust Z-score (LXF289 (LUNG)): −0.9454
- DNMDP AUC (MALME3M (SKIN)): 6.112
- Robust Z-score (MALME3M (SKIN)): −0.5486
- DNMDP AUC (MCF7 (BREAST)): 6.1256
- Robust Z-score (MCF7 (BREAST)): −0.5343
- DNMDP AUC (MEWO (SKIN)): 5.738
- Robust Z-score (MEWO (SKIN)): −0.9412
- DNMDP AUC (MKN7 (STOMACH)): 6.1453
- Robust Z-score (MKN7 (STOMACH)): −0.5136
- DNMDP AUC [1]: 6.0447
- Robust Z-score [1]: −0.6192
- DNMDP AUC [2]: 6.084
- Robust Z-score [2]: −0.578
- DNMDP AUC [3]: 5.6905
- Robust Z-score [3]: −0.991
- DNMDP AUC [4]: 5.7872
- Robust Z-score [4]: −0.8895
- DNMDP AUC [5]: 6.219
- Robust Z-score [5]: −0.4363
- DNMDP AUC (NCIH23 (LUNG)): 6.1854
- Robust Z-score (NCIH23 (LUNG)): −0.4716
- DNMDP AUC (NCIH1184 (LUNG)): 6.1776
- Robust Z-score (NCIH1184 (LUNG)): −0.4797
- DNMDP AUC (NCIH1355 (LUNG)): 6.171
- Robust Z-score (NCIH1355 (LUNG)): −0.4867
- DNMDP AUC (NCIH1435 (LUNG)): 5.9756
- Robust Z-score (NCIH1435 (LUNG)): −0.6918
- DNMDP AUC (NCIH1563 (LUNG)): 1.0887
- Robust Z-score (NCIH1563 (LUNG)): −5.821
- DNMDP AUC (NCIH1793 (LUNG)): 6.2189
- Robust Z-score (NCIH1793 (LUNG)): −0.4364
- DNMDP AUC (NCIH2009 (LUNG)): 5.7594
- Robust Z-score (NCIH2009 (LUNG)): −0.9187
- DNMDP AUC (NCIH2122 (LUNG)): 1.3105
- Robust Z-score (NCIH2122 (LUNG)): −5.588
- DNMDP AUC (NCIH2141 (LUNG)): 5.7218
- Robust Z-score (NCIH2141 (LUNG)): −0.9582
- DNMDP AUC [6]: 5.7088
- Robust Z-score [6]: −0.9718
- DNMDP AUC [7]: 5.8945
- Robust Z-score [7]: −0.7769
- DNMDP AUC [8]: 6.1512
- Robust Z-score [8]: −0.5075
- DNMDP AUC (ONCODG1 (OVARY)): 5.8296
- Robust Z-score (ONCODG1 (OVARY)): −0.845
- DNMDP AUC (PC14 (LUNG)): 6.2003
- Robust Z-score (PC14 (LUNG)): −0.4559
- DNMDP AUC [9]: 5.789
- Robust Z-score [9]: −0.8876
- DNMDP AUC [10]: 5.8519
- Robust Z-score [10]: −0.8216
- DNMDP AUC (RERFLCAD1 (LUNG)): 6.1862
- Robust Z-score (RERFLCAD1 (LUNG)): −0.4707
- DNMDP AUC (RKN (SOFT TISSUE)): 6.1579
- Robust Z-score (RKN (SOFT TISSUE)): −0.5004
- DNMDP AUC [11]: 5.9827
- Robust Z-score [11]: −0.6843
- DNMDP AUC (RVH421 (SKIN)): 1.4556
- Robust Z-score (RVH421 (SKIN)): −5.436
- DNMDP AUC [12]: 6.0502
- Robust Z-score [12]: −0.6135
- DNMDP AUC (SKCO1 (LARGE INTESTINE)): 5.688
- Robust Z-score (SKCO1 (LARGE INTESTINE)): −0.9936
- DNMDP AUC (SKLU1 (LUNG)): 6.0109
- Robust Z-score (SKLU1 (LUNG)): −0.6547
- DNMDP AUC (SKMEL3 (SKIN)): 1.2215
- Robust Z-score (SKMEL3 (SKIN)): −5.682
- DNMDP AUC (SKMEL5 (SKIN)): 5.9639
- Robust Z-score (SKMEL5 (SKIN)): −0.7041
- DNMDP AUC (SKNBE2 (AUTONOMIC GANGLIA)): 5.7717
- Robust Z-score (SKNBE2 (AUTONOMIC GANGLIA)): −0.9058
- DNMDP AUC (SKNSH (AUTONOMIC GANGLIA)): 5.8424
- Robust Z-score (SKNSH (AUTONOMIC GANGLIA)): −0.8316
- DNMDP AUC (SNU119 (OVARY)): 6.1473
- Robust Z-score (SNU119 (OVARY)): −0.5115
- DNMDP AUC (SNU620 (STOMACH)): 6.1039
- Robust Z-score (SNU620 (STOMACH)): −0.5571
- DNMDP AUC (SNU869 (BILIARY TRACT)): 5.7543
- Robust Z-score (SNU869 (BILIARY TRACT)): −0.9241
- DNMDP AUC [13]: 6.2071
- Robust Z-score [13]: −0.4488
- DNMDP AUC (SNU1272 (KIDNEY)): 6.0226
- Robust Z-score (SNU1272 (KIDNEY)): −0.6424
- DNMDP AUC (SUIT2 (PANCREAS)): 5.8956
- Robust Z-score (SUIT2 (PANCREAS)): −0.7757
- DNMDP AUC (T3M10 (LUNG)): 6.1867
- Robust Z-score (T3M10 (LUNG)): −0.4702
- DNMDP AUC (TE8 (OESOPHAGUS)): 6.2119
- Robust Z-score (TE8 (OESOPHAGUS)): −0.4437
- DNMDP AUC (TE125T (SOFT TISSUE)): 5.744
- Robust Z-score (TE125T (SOFT TISSUE)): −0.9349
- DNMDP AUC (TUHR14TKB (KIDNEY)): 5.8451
- Robust Z-score (TUHR14TKB (KIDNEY)): −0.8287
- DNMDP AUC [14]: 6.1481
- Robust Z-score [14]: −0.5107
- DNMDP AUC [15]: 6.1906
- Robust Z-score [15]: −0.4661
- DNMDP AUC [16]: 6.1777
- Robust Z-score [16]: −0.4796

— patent US11207320B2, “Compositions and methods for cancer expressing PDE3A or SLFN12” (The Broad Institute, Inc., priority 2015, dated 2021)
